# Reference: ChEMBL document CHEMBL4130497, “Fragment-based approach to identify IDO1 inhibitor building blocks” (Eur J Med Chem, 2017)
# What was measured:
# [1] = molecular target: Indoleamine 2,3-dioxygenase 1 (Homo sapiens, UniProt P14902); experiment: Binding affinity to NT647 dye labeled recombinant human IDO1 (1 to 403 residues) by microscale thermophoresis method
# [2] = Lipophilicity, log P of the compound in n1-octanol and water by pH-metric assay; type: physicochemical; conditions: n-octanol/water
# [3] = Dissociation constant, pKa of the compound; type: physicochemical
# [4] = molecular target: Indoleamine 2,3-dioxygenase 1 (Mus musculus) (UniProt P28776); experiment: Inhibition of mouse IDO1 expressed in mouse P1.HTR cells assessed as reduction in kynurenine production from L-Trp incubated for 16 hrs by HPLC method; type: cell-based
# Indoleamine 2,3-dioxygenase 1 (Mus musculus), sequence (P28776 whole entry, looked up): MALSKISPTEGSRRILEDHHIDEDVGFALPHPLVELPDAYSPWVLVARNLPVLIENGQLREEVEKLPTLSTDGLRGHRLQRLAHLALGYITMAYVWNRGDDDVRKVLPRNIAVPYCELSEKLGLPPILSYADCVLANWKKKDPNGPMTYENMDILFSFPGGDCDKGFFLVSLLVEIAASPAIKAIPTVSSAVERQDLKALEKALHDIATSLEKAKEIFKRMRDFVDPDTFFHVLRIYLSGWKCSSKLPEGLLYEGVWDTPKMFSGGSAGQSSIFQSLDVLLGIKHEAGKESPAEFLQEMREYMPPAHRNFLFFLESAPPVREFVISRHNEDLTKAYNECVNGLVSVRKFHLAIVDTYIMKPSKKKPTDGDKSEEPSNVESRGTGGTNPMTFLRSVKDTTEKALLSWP
# Indoleamine 2,3-dioxygenase 1, sequence (P14902 whole entry, the tested form may be a part): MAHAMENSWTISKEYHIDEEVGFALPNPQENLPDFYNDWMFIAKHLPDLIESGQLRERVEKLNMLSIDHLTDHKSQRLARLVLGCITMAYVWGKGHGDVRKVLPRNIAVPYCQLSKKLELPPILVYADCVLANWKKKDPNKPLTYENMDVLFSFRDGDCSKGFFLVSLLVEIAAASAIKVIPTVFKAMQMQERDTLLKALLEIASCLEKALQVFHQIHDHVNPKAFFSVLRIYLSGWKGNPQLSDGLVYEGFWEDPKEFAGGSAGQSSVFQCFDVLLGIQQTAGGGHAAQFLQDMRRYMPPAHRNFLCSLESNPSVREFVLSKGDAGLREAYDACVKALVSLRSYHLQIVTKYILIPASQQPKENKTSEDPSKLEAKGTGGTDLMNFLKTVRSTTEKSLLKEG
SMILES,Kd [1] [µM],other results
N=C(N)Sc1c[nH]c2ccccc12,17.8,logP [2]: 1.8; pKa [3]: 9.5; fold change (FC) [4]: < 0.6
O=C1CC(NC(=O)Cn2ccc3ccccc32)CN1 (stereo not given),237,
OC(c1nc2ccccc2[nH]1)C(O)c1nc2ccccc2[nH]1 (stereo not given),774,
COc1ccccc1OCC(O)Cn1cnc2ccccc21 (stereo not given),86.8,
O=C(NCCn1ncccc1=O)c1ccc2ccccc2c1,240,
NC(S)=NNC(=O)Nc1ccc(Cl)c(Cl)c1,941,
COc1ccc(-c2cnc(CN)[nH]2)cc1,> 500,
Cc1c(C)n(CC(O)CN2CCNCC2)c2ccccc12 (stereo not given),96.7,
NCC(O)COCC1COc2ccccc2O1 (stereo not given),> 1000,
Cc1ccc(NCCNC(=O)c2c[nH]c3ccccc23)nn1,> 1000,
NCCc1nc2ccc(F)cc2[nH]1,548,
NCC(O)c1cccc2ccccc12 (stereo not given),> 1000,
O=C(/C=C/N1CCOCC1)c1coc2ccccc12,147,
NC(=O)CN1CCN(c2cccc3ccccc23)C(=O)C1=O,> 1000,
NC(=O)c1csc(NC(=O)Cc2c[nH]c3ccccc23)c1,61.5,
Cn1cc(C(O)CN)c2ccccc21 (stereo not given),97,
OC(CC1c2ccccc2-c2cncn21)C1CCCCC1 (stereo not given),,pKa [3]: 6.7
NCC(O)c1cc(Cl)cc(Cl)c1 (stereo not given),> 1000,
O=S(=O)(NCc1cccnc1)c1ccc2ccccc2c1,53.7,logP [2]: 2.5; pKa [3]: 4.8 to 10.3
CCc1cccc2sc(NCCN3CCOCC3)nc12,33.5,logP [2]: 2.3; pKa [3]: 3.1 to 6.2
COc1ccccc1OCC(O)CNC1CCCC1 (stereo not given),> 1000,
COC(=O)C(N)c1ccc2ccccc2c1 (stereo not given),169,
Cc1ccc(NCCNC(=O)c2cccc(Cl)c2)nn1,> 1000,
